# Laboratory results taken from patent US20100099676A1 (SHIONOGI & CO., LTD., priority 2006, published 2010).
# Read-outs that look alike come from different tables or passages of the source.
# What was measured:
# Assay in all cases: Enzyme inhibiting activity of MMPs, fluorogenic peptide substrate
# Format in all cases: biochemical
# [1] = target: T1, MMP-13 (Homo sapiens, UniProt P45452)
# T1 construct: purchased Calbiochem (EMD/MERCK Biosciences)
# Experimental: (§1) Various human MMPs (MMP-2, MMP-9 and MMP-13) were purchased from Calbiochem (EMD/MERCK Biosciences).
# Since the purchased MMP-13 was Proenzyme, the activated one was used, which was incubated at 37° C. for 2 hours after the successive addition of an assay buffer (containing 50 mM Tris-HCl (pH7.6), 0.3 M NaCl, 10 mM CaCl2, 0.005% Brij35) and APMA (final concentration 1 mM) to the enzyme solution.
# (§2) The enzyme activity of MMPs was measured according to the method described in C. Graham Knight, Frances Willenbrock and Gillian Murphy: A novel coumarin-labelled peptide for sensitive continuous assays of the matrix metalloproteinases: FEBS LETT., 296, (1992), 263-266. As a substrate, MOCAc-Pro-Leu-Gly-Leu-A2Pr(DNP)- Ala-Arg-NH2 (Peptide Institute, Inc. Osaka, Japan) was used, and the following four assays are performed per compound (inhibitor) for measuring the inhibiting activity.
# (§3) (A) Substrate (synthetic substrate), enzyme (MMPs), inhibitor
# (§4) (B) Substrate (synthetic substrate), inhibitor
# (§5) (C) Substrate (synthetic substrate), enzyme (MMPs)
# (§6) (D) Substrate (synthetic substrate)
# (§7) In each assay, the fluorescent intensity was measured, and inhibition (%) was calculated by the following equation.
# (§8) Inhibition (%)=[I−(A−B)/(C−D)]×100
# (§9) IC50 indicates a concentration at which inhibition (%) is 50%.
# [2] = target: T2, MMP-9 (Homo sapiens, UniProt P14780); conditions: substrate MOCAc-Pro-Leu-Gly-Leu-A2Pr(DNP)-Ala-Arg-NH2, fluorescent intensity
# T2 construct: purchased Calbiochem (EMD/MERCK Biosciences)
# Experimental: as §1, §2, §3, §4, §5, §6, §7, §8, §9
# [3] = target: T3, MMP-2 (Homo sapiens, UniProt P08253); conditions: substrate MOCAc-Pro-Leu-Gly-Leu-A2Pr(DNP)-Ala-Arg-NH2, fluorescent intensity
# T3 construct: purchased Calbiochem (EMD/MERCK Biosciences)
# T3 sequence (P08253 110-660): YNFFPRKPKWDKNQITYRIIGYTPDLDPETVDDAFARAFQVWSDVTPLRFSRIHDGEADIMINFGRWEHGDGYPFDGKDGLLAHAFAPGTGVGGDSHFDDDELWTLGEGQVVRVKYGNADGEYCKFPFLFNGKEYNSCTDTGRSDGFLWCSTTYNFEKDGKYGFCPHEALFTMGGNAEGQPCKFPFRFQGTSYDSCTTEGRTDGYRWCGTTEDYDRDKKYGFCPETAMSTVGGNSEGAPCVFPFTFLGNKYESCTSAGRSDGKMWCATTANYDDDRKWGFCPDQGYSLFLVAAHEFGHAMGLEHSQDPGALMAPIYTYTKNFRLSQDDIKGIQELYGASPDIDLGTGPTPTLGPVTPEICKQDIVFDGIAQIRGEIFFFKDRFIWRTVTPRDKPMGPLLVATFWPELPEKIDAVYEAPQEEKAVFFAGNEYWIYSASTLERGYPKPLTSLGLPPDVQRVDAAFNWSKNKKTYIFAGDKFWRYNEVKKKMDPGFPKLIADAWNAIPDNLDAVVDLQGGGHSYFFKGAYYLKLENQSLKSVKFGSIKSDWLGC
# Experimental: as §1, §2, §3, §4, §5, §6, §7, §8, §9
# [4] = APMA-activated proenzyme, substrate MOCAc-Pro-Leu-Gly-Leu-A2Pr(DNP)-Ala-Arg-NH2, fluorescent intensity, read-out: IC50 MMP-13
# [5] = compounds not described in the Tables, read-out: inhibiting activity for MMP-13
# T2 sequence (P14780 94-707): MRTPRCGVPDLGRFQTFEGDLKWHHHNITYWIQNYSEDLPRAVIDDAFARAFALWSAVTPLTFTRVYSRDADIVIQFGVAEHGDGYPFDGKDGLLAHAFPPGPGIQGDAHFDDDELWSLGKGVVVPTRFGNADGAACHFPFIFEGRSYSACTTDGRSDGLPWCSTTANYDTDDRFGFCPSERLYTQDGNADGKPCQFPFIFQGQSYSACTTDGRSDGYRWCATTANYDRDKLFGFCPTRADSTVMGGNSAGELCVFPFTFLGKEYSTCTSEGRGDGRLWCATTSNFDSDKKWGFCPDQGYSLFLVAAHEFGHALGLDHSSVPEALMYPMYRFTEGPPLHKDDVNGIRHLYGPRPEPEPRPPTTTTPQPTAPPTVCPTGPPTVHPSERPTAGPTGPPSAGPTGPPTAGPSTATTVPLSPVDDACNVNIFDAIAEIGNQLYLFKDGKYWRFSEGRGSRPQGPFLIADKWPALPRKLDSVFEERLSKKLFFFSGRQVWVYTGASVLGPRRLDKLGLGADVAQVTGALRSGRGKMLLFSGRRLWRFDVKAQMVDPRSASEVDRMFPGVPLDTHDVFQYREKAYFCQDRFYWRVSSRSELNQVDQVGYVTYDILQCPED
Compound,"IC50 [1, 4]",IC50 [2],IC50 [3],"IC50 [1, 5]"
CC(C)[C@@H](NS(=O)(=O)N1CCN(c2ccc(C#Cc3ccnc(C(=O)NCc4ccc(N5CCOCC5)cc4)c3)cc2)CC1)C(=O)O,4 nM,> 10000 nM,1000 to 10000 nM,
"C[C@@H](NS(=O)(=O)N1CCN(c2ccc(C#Cc3cccc(C(=O)NCc4ccccc4)c3)cc2)CC1)C(=O)O [Compound I-1, (1)-2-{4-[4-(3-benzylcarbamoylphenylethynyl)-phenyl]-piperazine-1-sulfonylamino}-proponic acid]",2.1 nM,> 10000 nM,100 to 1000 nM,
"C[C@@H](NS(=O)(=O)N1CCN(c2ccc(/C=C/c3cccc(C(=O)NCc4ccccc4)c3)cc2)CC1)C(=O)O [Compound I-2, (R)-2-(4-{4-[(E)-2-(3-benzylcarbamoylphenyl)-vinyl]-phenyl}-piperazine-1-sulfonylamino)-proponic acid]",3.8 nM,> 10000 nM,100 to 1000 nM,
"C[C@@H](NS(=O)(=O)N1CCN(c2ccc(C#Cc3ccc4cccc(C(=O)N5CCOCC5)c4c3)cc2)CC1)C(=O)O [Compound I-33, (R)-2-(4-{4-[8-(morpholine-4-carbonyl)-naphthalen-2-ylethynyl]-phenyl}-piperazine-1-sulfonylamino)-proponic acid]",11 nM,> 10000 nM,1000 to 10000 nM,
"CC(C)[C@@H](NS(=O)(=O)N1CCN(c2ccc(C#Cc3ccc4cccc(C(N)=O)c4c3)cc2)CC1)C(=O)O [Compound I-93, (R)-2-{4-[4-(8-carbamoylnaphthalen-2-ylethynyl)-phenyl]-piperazine-1-sulfonylamino}-3-methylbutanoic acid]",,,,10 to 100 nM
"CO/N=C(\C)c1cccc2ccc(C#Cc3ccc(N4CCN(S(=O)(=O)N[C@H](C)C(=O)O)CC4)cc3)cc12 [Compound I-95, (R)-2-{4-[4-(8-{1-[(E)-methoxyimino]-ethyl}-naphthalen-2-ylethynyl)-phenyl]-piperazine-1-sulfonylamino}-proponic acid]",,,,10 to 100 nM
"CO/N=C(/C)c1cccc2ccc(C#Cc3ccc(N4CCN(S(=O)(=O)N[C@H](C)C(=O)O)CC4)cc3)cc12 [Compound I-96, (R)-2-{4-[4-(8-{1-[(Z)-methoxyimino]-ethyl}-naphthalen-2-ylethynyl)-phenyl]-piperazine-1-sulfonylamino}-proponic acid]",,,,10 to 100 nM
"COc1cccc2ccc(C#Cc3ccc(N4CCN(S(=O)(=O)N[C@H](C)C(=O)O)CC4)cc3)cc12 [Compound I-99, (R)-2-{4-[4-(8-methoxynaphthalen-2-ylethynyl)-phenyl]-piperazine-1-sulfonylamino}-proponic acid]",,,,10 to 100 nM
"CC(=O)c1cccc2ccc(C#Cc3ccc(N4CCN(S(=O)(=O)N[C@@H](C(=O)O)C(C)C)CC4)cc3)cc12 [Compound I-101, (R)-2-{4-[4-(8-acetylnaphthalen-2-ylethynyl)-phenyl]-piperazine-1-sulfonylamino}-3-methylbutanoic acid]",,,,10 to 100 nM
"CCNC(=O)c1cccc2ccc(C#Cc3ccc(N4CCN(S(=O)(=O)N[C@H](C)C(=O)O)CC4)cc3)cc12 [Compound I-104, (R)-2-{4-[4-(8-ethylcarbamoylnaphthalen-2-ylethynyl)-phenyl]-piperazine-1-sulfonylamino}-proponic acid]",,,,< 10 nM
"C[C@H](NS(=O)(=O)N1CCN(c2ccc(C#Cc3ccc4cccc(C(N)=O)c4c3)cc2)CC1)C(=O)O [Compound I-105, (S)-2-{4-[4-(8-carbamoylnaphthalen-2-ylethynyl)-phenyl]-piperazine-1-sulfonylamino}-proponic acid]",,,,10 to 100 nM
"C[C@@H](NS(=O)(=O)N1CCN(c2ccc(C#Cc3ccc4cccc(C(=O)NCc5ccccc5)c4c3)cc2)CC1)C(=O)O [Compound I-106, (R)-2-{4-[4-(8-benzylcarbamoylnaphthalen-2-ylethynyl)-phenyl]-piperazine-1-sulfonylamino}-proponic acid]",,,,< 10 nM
"C[C@@H](NS(=O)(=O)N1CCN(c2ccc(C#Cc3ccc4c(c3)/C(=N\OCc3ccccc3)CCO4)cc2)CC1)C(=O)O [Compound I-113, (R)-2-[4-(4-{4-[(Z)-benzyloxyimino]-chroman-6-ylethynyl}-phenyl)-piperazine-1-sulfonylamino]-proponic acid]",71 nM,> 10000 nM,> 10000 nM,
"CC(C)CO/N=C1\CCc2ccc(C#Cc3ccc(N4CCN(S(=O)(=O)N[C@H](C)C(=O)O)CC4)cc3)cc21 [Compound I-161, (R)-2-[4-(4-{3-[(E)-isobutoxyimino]indan-5-ylethynyl}-phenyl)-piperazine-1-sulfonylamino]-proponic acid]",,,,10 to 100 nM

# Next, values leading:
"IC50 [1, 4]",IC50 [2],IC50 [3],"IC50 [1, 5]",Compound
,,,< 10 nM,"C[C@@H](NS(=O)(=O)N1CCN(c2ccc(C#Cc3ccc4cccc(C(=O)NC5CC5)c4c3)cc2)CC1)C(=O)O [Compound I-107, (R)-2-{4-[4-(8-cyclopropylcarbamoylnaphthalen-2-ylethynyl)-phenyl]-piperazine-1-sulfonylamino}-proponic acid]"
,,,10 to 100 nM,"Cc1cnc(-c2cccc3ccc(C#Cc4ccc(N5CCN(S(=O)(=O)N[C@H](C)C(=O)O)CC5)cc4)cc23)o1 [Compound I-108, (R)-2-(4-{4-[8-(5-methyloxazol-2-yl)-naphthalen-2-ylethynyl]-phenyl}-piperazine-1-sulfonylamino)-proponic acid]"
,,,10 to 100 nM,"C[C@@H](NS(=O)(=O)N1CCN(c2ccc(C#Cc3ccc4cccc(-c5ncco5)c4c3)cc2)CC1)C(=O)O [Compound I-109, (R)-2-{4-[4-(8-oxazol-2-ylnaphthalen-2-ylethynyl)-phenyl]-piperazine-1-sulfonylamino}-proponic acid]"
,,,10 to 100 nM,"CCC[C@H](NS(=O)(=O)N1CCN(c2ccc(C#Cc3ccc4cccc(C(C)=O)c4c3)cc2)CC1)C(=O)O [Compound I-110, (S)-2-{4-[4-(8-acetylnaphthalen-2-ylethynyl)-phenyl]-piperazine-1-sulfonylamino}-pentanoic acid]"
,,,10 to 100 nM,"C[C@@H](NS(=O)(=O)N1CCN(c2ccc(C#Cc3ccc4cccc(-c5ccc[nH]5)c4c3)cc2)CC1)C(=O)O [Compound I-111, (R)-2-(4-{4-[8-(1H-pyrrol-2-yl)-naphthalen-2-ylethynyl]-phenyl}-piperazine-1-sulfonylamino)-proponic acid]"
62 nM,> 10000 nM,> 10000 nM,,"C[C@@H](NS(=O)(=O)N1CCN(c2ccc(C#Cc3ccc4c(c3)C(c3ccco3)=CCC4)cc2)CC1)C(=O)O [Compound I-112, (R)-2-{4-[4-(8-furan-2-yl-5-6-dihydronaphthalen-2-ylethynyl)-phenyl]-piperazine-1-sulfonylamino}-proponic acid]"
11 nM,> 10000 nM,1000 to 10000 nM,,"C[C@@H](NS(=O)(=O)N1CCN(c2ccc(C#Cc3ccc4c(c3)c(/C=C/C#N)cn4C)cc2)CC1)C(=O)O [Compound I-114, (R)-2-(4-{4-[3-((E)-2-cyanovinyl)-1-methyl-1H-indol-5-ylethynyl]-phenyl}-piperazine-1-sulfonylamino)-proponic acid]"
12 nM,> 10000 nM,1000 to 10000 nM,,"Cc1cc(C(=O)NC(C)C)c2cc(C#Cc3ccc(N4CCN(S(=O)(=O)N[C@H](C)C(=O)O)CC4)cc3)ccc2n1 [Compound I-115, (R)-2-{4-[4-(4-isopropylcarbamoyl-2-methylquinolin-6-ylethynyl)-phenyl]-piperazine-1-sulfonylamino}-proponic acid]"
46 nM,> 10000 nM,1000 to 10000 nM,,"CC(=O)c1nccc2ccc(C#Cc3ccc(N4CCN(S(=O)(=O)N[C@@H](C(=O)O)C(C)C)CC4)cc3)cc12 [Compound V-1, (R)-2-{4-[4-(1-acetylisoquinolin-7-ylethynyl)-phenyl]-piperazine-1-sulfonylamino}-3-methylbutanoic acid]"
